This note sets out measurements from ChEMBL document CHEMBL3639296, “Pyrazolopyrimidine compounds as kinase inhibitors” (2015).

The target in this assay is Tyrosine-protein kinase BTK (Homo sapiens, UniProt Q06187). The assay is described as follows: Caliper-Based Kinase Assay: A Caliper-based kinase assay (Caliper Life Sciences, Hopkinton, Mass.) was used to measure inhibition of Btk kinase activity of a compound of the present disclosure. […] The reaction was then terminated with EDTA, final concentration 20 mM and the phosphorylated reaction product was quantified on a Caliper Desktop Profiler (Caliper LabChip 3000).
Chain of Tyrosine-protein kinase BTK (Q06187 whole entry): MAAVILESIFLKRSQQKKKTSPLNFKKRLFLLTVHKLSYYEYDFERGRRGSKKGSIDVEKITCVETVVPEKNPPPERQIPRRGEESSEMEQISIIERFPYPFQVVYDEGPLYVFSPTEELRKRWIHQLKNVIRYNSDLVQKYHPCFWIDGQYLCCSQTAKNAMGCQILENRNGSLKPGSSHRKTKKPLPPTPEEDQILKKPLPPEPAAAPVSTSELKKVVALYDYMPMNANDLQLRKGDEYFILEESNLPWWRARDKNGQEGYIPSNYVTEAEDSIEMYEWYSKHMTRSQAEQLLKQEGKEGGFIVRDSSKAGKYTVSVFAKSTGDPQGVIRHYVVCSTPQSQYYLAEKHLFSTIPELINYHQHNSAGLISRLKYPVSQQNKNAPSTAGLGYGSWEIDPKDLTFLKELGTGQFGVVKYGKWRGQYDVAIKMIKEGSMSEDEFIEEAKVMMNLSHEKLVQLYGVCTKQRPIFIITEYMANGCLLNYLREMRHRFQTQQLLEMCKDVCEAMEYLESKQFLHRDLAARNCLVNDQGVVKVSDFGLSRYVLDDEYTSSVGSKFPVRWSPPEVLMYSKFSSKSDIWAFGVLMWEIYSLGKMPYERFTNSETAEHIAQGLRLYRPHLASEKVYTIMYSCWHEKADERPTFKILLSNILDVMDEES
In turn, `CC(C)(C)N1CCN(C(C)(C)C=C(C#N)C(=O)N2CCC[C@@H](n3nc(-c4ccc(Oc5ccccc5)cc4F)c4c(N)ncnc43)C2)CC1` returned an IC50 of 0.6 nM.

For the compound `CC(C)(C=C(C#N)C(=O)N1CCC[C@H]1Cn1nc(-c2ccc(Oc3ccccc3)cc2F)c2c(N)ncnc21)N(C1CC1)C1COC1`, the 50% inhibitory concentration (IC50) worked out at 26 nM.

Regarding `CC(C)(C=C(C#N)C(=O)N1CCC[C@H]1Cn1nc(-c2ccc(Oc3ccccc3)cc2F)c2c(N)ncnc21)NC1COC1`, it took 16.1 nM to reach half-maximal inhibition (IC50).

As a reminder, the IC50 is the concentration that inhibits the measured activity by half. A high value points to weaker potency in that assay.
